Read-outs that look alike come from different tables or passages of the source.
What was measured:
LtP = assay: EPR spin trapping (DMPO): activation of AcEPs by LtP; format: cell-based, Leishmania tarentolae; settings: 500 µM compound, 2 × 10^9 LtP/mL, 40 mM DMPO, 15 min, no added iron
Description: To detect the radicals derived from AcEPs in LtP, EPR experiments were performed using DMPO as spin trap. Aliquots of the cell broth were transferred into Sarstedt tubes that were centrifuged (20 °C, 1800× g, 10 min), and the supernatants were discarded. Then the cell pellets were resuspended in PBS and centrifuged again. After removal of the supernatants, the cell pellets were resuspended in a mixture of PBS containing glucose (15 mM), giving a final cell number of 2 × 10^9 LtP/mL. Aliquots (150 µL) were incubated in 1.5 mL Eppendorf tubes with aeration holes. The cells were incubated with DMPO (40 mM) for 5 min at 26 °C, and after addition of 500 µM of the respective substance (Asc, AcEP1117, AcEP1118, AcEP1129, AcEP1130, Ac or AQ), the samples were incubated for additional 15 min at 26 °C under constant agitation (agitation speed: 0.3 s^−1). Control samples containing LtP, LtP and DMSO (1.27%, v/v), or PBS/glucose alone were incubated with 40 mM DMPO under the same conditions. Cell samples containing DMPO that were treated with Asc served as positive control. Samples treated with Ac or AQ were used as negative controls. Subsequently, 50 µL of the samples were aspirated into glass capillaries and transferred in the MD5 resonator of the EPR spectrometer. The samples were measured immediately using the following instrument settings: microwave frequency 9.684 GHz; microwave power 20 mW, modulation frequency 100 kHz; modulation amplitude 2 G; time constant 0.164 s; center field 3449 G; scan rate 71 G/min; sweep width 100 G; scan time 84 s; attenuation 8.93 × 10^5; and scans 3.

J774 macrophages = assay: Resazurin viability assay in J774 macrophages; format: cell-based; settings: Mus musculus, read-out: IC50 (µM) Mean ± SD J774
Description: The murine macrophage cell line J774A.1 (mouse, ATCC, TIB-67™) was cultivated in Dulbecco’s Modified Eagle Medium (DMEM) (high glucose, 1.5 g/L NaHCO3) supplemented with 25,000 IU/L penicillin, 25 mg/L streptomycin, and 10% FCS (heat-inactivated) in 50 mL TubeSpin bioreactors. The tubes were kept in an incubator at 37 °C and 5% CO2 on a roller culture apparatus (5 rpm). The cells were passaged twice a week, diluting them in a ratio of 1:10. The macrophages were used until passage 30. To determine the cell count, the cell suspension was resuspended and diluted 1:2 with PBS. After fixation of the cells by mixing the cell suspension 1:1 with a formaldehyde solution (2%, v/v), aliquots of the resulting suspension were transferred into a standard Neubauer chamber (VWR, Austria) and counted manually using a light microscope (Motic BA310, Austria) at a magnification of 400×.
LtP (2 × 10^6 cells/mL) in a mixture of YEM and PBS (1:1, v/v) containing 25,000 U/L penicillin, 25 mg/L streptomycin, and 6 µM hemin (YEM/PBS) were prepared. Aliquots of 200 µL of this suspension were distributed in 96-well plates. Control rows containing YEM/PBS (no activity) and with untreated LtP (100% activity) were also loaded on the plate. To the wells of third rows, compounds (leading to a final vehicle concentration of max. 2% dimethyl sulfoxide (DMSO) in the wells) were added. Subsequently, five 1:5 serial dilution steps were performed. The plates were incubated at 26 °C for 48 h. Following the incubation, 50 µL of a resazurin solution in PBS were added to each well, giving a final concentration of 20 µM. After 4 h of incubation, the fluorescence was measured at 560 nm excitation and 590 nm emission using a plate reader (Perkin Elmer Enspire, Germany). The resazurin assays with J774 cells were performed in analogy to the LtP resazurin assays. Aliquots of a J774 cell suspension in DMEM supplemented with 25,000 U/L penicillin, 25 mg/L streptomycin, and 10% FCS (heat-inactivated), giving a final cell concentration of 10^5 cells/mL, were distributed in the wells of the 96-well microplates. The cells were incubated for 24 h (37 °C, 5% CO2) to allow attachment. Then the medium was discarded and non-adherent cells were removed with 200 µL PBS per well. After the addition of DMEM, the compounds were added, and a serial dilution was performed. Control rows with DMEM (no activity) and with untreated J774 cells (100% activity) were also included. […] Then the addition of resazurin and the measurement of fluorescence were carried out in analogy to the viability assays performed in LtP.
Calculations were carried out using Microsoft Excel (Microsoft). The graphs were created using Origin 6.1 (OriginLab Corporation, Northampton, MA, USA). The half maximal inhibitory concentrations (IC50) were determined from non-linear concentration–response curves using a four-parameter logistic model and expressed as the mean ± standard deviation (SD). Statistically significant differences of p <0.05 were identified using Students t-test.

[1] = resazurin assay, endpoint at 48 h, 10^5 J774/mL

O=C1c2ccccc2C(=O)c2ccccc21 [AQ, anthraquinone, reference compound]
DMPO spin adduct formation in LtP (EPR) (LtP): neither Ac nor AQ resulted in detectable DMPO spin adducts
IC50 (J774 macrophages; [1]): 117 ± 24.3 µM

c1ccc2cc3ccccc3cc2c1 [Ac, anthracene]
DMPO spin adduct formation in LtP (EPR) (LtP): neither Ac nor AQ resulted in detectable DMPO spin adducts
IC50 (J774 macrophages; J774, 48 h): > 400 µM

c1ccc2c(c1)C1OOC2c2ccccc21 [AcEP1117, 9,10-dihydro-9,10-epidioxidoanthracene]
DMPO spin adduct formation in LtP (EPR) (LtP): no spin adducts were observed
IC50 (J774 macrophages; [1]): 43.8 ± 36.1 µM

CC12OOC(C)(c3ccccc31)c1ccccc12 [AcEP1118, 9,10-dimethyl-9,10-dihydro-9,10-epidioxidoanthracene]
DMPO spin adduct formation in LtP (EPR) (LtP): a moderate intensity DMPO spin adduct was observed
IC50 (J774 macrophages; [1]): 4.34 ± 1.91 µM

CC12OOC(c3ccccc31)c1ccccc12 [AcEP1129, 9-methyl-9,10-dihydro-9,10-epidioxidoanthracene]
DMPO spin adduct formation in LtP (EPR) (LtP): high intensity EPR spectra of spin adducts were observed
IC50 (J774 macrophages; [1]): 0.9 ± 0.28 µM

CCc1ccc2c(c1)C1OOC2c2ccccc21 (stereo not shown) [AcEP1130, 2-ethyl-9,10-dihydro-9,10-epidioxidoanthracene]
DMPO spin adduct formation in LtP (EPR) (LtP): no spin adducts were observed
IC50 (J774 macrophages; [1]): 7.82 ± 0.47 µM

N=C(N)c1ccc(OCCCCCOc2ccc(C(=N)N)cc2)cc1 [Pen, pentamidine, reference compound]
IC50 (J774 macrophages; [1]): 14.4 ± 6.48 µM

Source: PMC6100073, “Activation of Anthracene Endoperoxides in Leishmania and Impairment of Mitochondrial Functions” (Molecules : A Journal of Synthetic Chemistry and Natural …, 2018)
